Assay results published in patent publication US7241754B2, “2-Desmethyl ansamycin compounds” (priority 2003, dated 2007).

How the values were obtained:
CCFT-CEM cells = test: Cytotoxicity against CCFT-CEM cells; details: read-out: IC50, cytotoxicity against CCFT-CEM cells
SKBr3 cells = test: Cytotoxicity against SKBr3 cells (CellTiter-Glo, 72 h); format: cell-based; details: Homo sapiens, SK-BR-3, 72 h, read-out: Cytotoxicity against SKBr3 Cells (IC50, μM)
Description: Cytotoxicity was determined with SKBr3 cells (ATCC HTB-30), a breast cancer cell line. […] Cells were plated into 96-well microtiter back plates at 4,000 cells per 50μL per well, overnight. Serial 10x dilutions of test compound (10 μM to 0.1 pM) in cell culture media were prepared with a Biomek 2000 apparatus, using the protocols of deeper-1000 μL-media and deeper-1000 μL-dilution. 50 μL of each dilution was added to wells containing cells. Each compound or control (medium only) was tested in duplicate. For each assay, the wells contained a final volume of 100 μL (50 μL of cells and 50 μL of compound dilution). […] CellTiter-Glo Luminescent Reagent (Promega #G7573) (100 μL) was added to each well. The well contents were mixed for 5 min and the plates were kept at room temperature for another 30 min. Luminescence was recorded using a Wallac VICTOR^2 Multilabel Counter (PerkinElmer) and IC50 values were determined using Kaleidagraph software (Synergy Software).

Hsp90 = Hsp90 (Homo sapiens, UniProt P07900); test: Hsp90 filter binding assay

Compound	IC50 (CCFT-CEM cells) [µM]	IC50 (SKBr3 cells) [µM]	Kd (Hsp90) [µM]
CO[C@H]1C[C@H](C)Cc2cc(O)cc(c2)NC(=O)/C=C/CC[C@H](OC)[C@@H](OC(N)=O)/C(C)=C/[C@H](C)[C@H]1O [Compound 1-A]	2.5	0.85	0.017
C=CCOc1cc2cc(c1)NC(=O)C=CCCC(OC)C(OC(N)=O)C(C)=CC(C)C(O)C(OC)CC(C)C2 (centres unmarked) [Compound 1-B]	–	> 5	1
COC1CCC=CC(=O)Nc2cc(cc(OCCN(C)C)c2)CC(C)CC(OC)C(O)C(C)C=C(C)C1OC(N)=O (centres unmarked) [Compound 1-C]	–	> 10	0.23
COc1cc2cc(c1)NC(=O)C=CCCC(OC)C(OC(N)=O)C(C)=CC(C)C(O)C(OC)CC(C)C2 (centres unmarked) [Compound 1-D]	–	6	0.51
COC1CCC=CC(=O)Nc2cc(cc(OCC(N)=O)c2)CC(C)CC(OC)C(O)C(C)C=C(C)C1OC(N)=O (centres unmarked) [Compound 1-E]	–	> 5	0.44
COC1CCC=CC(=O)Nc2cc(cc(O)c2CN(C)C)CC(C)CC(OC)C(O)C(C)C=C(C)C1OC(N)=O (centres unmarked) [Compound 1-F]	–	0.63	0.2
COC1CCC=CC(=O)Nc2cc(cc(O)c2CN2CCOCC2)CC(C)CC(OC)C(O)C(C)C=C(C)C1OC(N)=O (centres unmarked) [Compound 1-G]	–	> 5	0.64
COC(=O)COc1cc2cc(c1)NC(=O)C=CCCC(OC)C(OC(N)=O)C(C)=CC(C)C(O)C(OC)CC(C)C2 (centres unmarked) [Compound 1-H]	–	> 5	0.36
COC1CCC=CC(=O)Nc2cc(cc(OCC(=O)O)c2)CC(C)CC(OC)C(O)C(C)C=C(C)C1OC(N)=O (centres unmarked) [Compound 1-I]	–	> 5	0.93
COC1CCC=CC(=O)Nc2cc(cc(O)c2Br)CC(C)CC(OC)C(O)C(C)C=C(C)C1OC(N)=O (centres unmarked) [Compound 1-J]	–	> 5	1.7
COC1CCC=CC(=O)Nc2cc(O)c(Br)c(c2)CC(C)CC(OC)C(O)C(C)C=C(C)C1OC(N)=O (centres unmarked) [Compound 1-K]	–	0.8	0.14
COC1CCC=CC(=O)Nc2cc(c(Br)c(O)c2Br)CC(C)CC(OC)C(O)C(C)C=C(C)C1OC(N)=O (centres unmarked) [Compound 1-M]	–	> 5	5.9
COC1CCC=CC(=O)Nc2cc(c(CN(C)CCN(C)C)c(O)c2Br)CC(C)CC(OC)C(O)C(C)C=C(C)C1OC(N)=O (centres unmarked) [Compound 1-N]	–	> 5	31
COC1=C2C[C@@H](C)C[C@H](OC)[C@H](O)[C@@H](C)/C=C(\C)[C@H](OC(N)=O)[C@@H](OC)/C=C\C=C(/C)C(=O)NC(=CC1=O)C2=O [Geldanamycin, reference compound]	–	0.023	–
CO[C@H]1C[C@H](C)Cc2cc(O)cc(c2)NC(=O)CC(O)CC[C@H](OC)[C@@H](OC(N)=O)/C(C)=C/[C@H](C)[C@H]1O (some centres unmarked) [III]	–	> 5	1
CO[C@H]1C[C@H](C)Cc2cc(O)cc(c2)NC(=O)CC(O)CC[C@H](OC)[C@@H](O)/C(C)=C/[C@H](C)[C@H]1O (some centres unmarked) [IV]	–	> 5	17
